Measured values: the supplement of paper PMC10307832

How the values were obtained:
Experiment in all cases: relative viability (nuclei count vs DMSO), 5 days (fraction); higher = more cells survive
[1] = compound: Nc1ccn([C@@H]2O[C@H](CO)[C@@H](O)C2(F)F)c(=O)n1 [Gemcitabine] + COc1cccc2cc(-c3nc([C@H]4CC[C@H](C(=O)O)CC4)n4ncnc(N)c34)[nH]c12 [OSI-027] (partner 0.5 µM)
How it was run: (§1)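 Values are medians from duplicate plates. Each reflects relative viability, defined as the nuclei count of treated wells over that of vehicle wells. Lung cancer cell lines in 1536-well plates were pin-tool dosed one day after seeding with one drug alone or with a fixed anchor-drug dose plus five library-drug doses (not always all listed) in √10 steps, then fixed, stained and imaged at 4× after 5 days.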

[2] = compound: Nc1ccn([C@@H]2O[C@H](CO)[C@@H](O)C2(F)F)c(=O)n1 [Gemcitabine] + CS(=O)(=O)CCNCc1ccc(-c2ccc3ncnc(Nc4ccc(OCc5cccc(F)c5)c(Cl)c4)c3c2)o1 [Lapatinib] (partner 2 µM)
How it was run: as §1

[3] = compound: Nc1ccn([C@@H]2O[C@H](CO)[C@@H](O)C2(F)F)c(=O)n1 [Gemcitabine] + C[C@]1(O)C[C@@H](c2nc(-c3ccc4ccc(-c5ccccc5)nc4c3)c3c(N)nccn32)C1 [Linsitinib] (partner 1 µM)
How it was run: as §1

[4] = compound: Nc1ccn([C@@H]2O[C@H](CO)[C@@H](O)C2(F)F)c(=O)n1 [Gemcitabine] + Cc1nc(NC(=O)N2CCC[C@H]2C(N)=O)sc1-c1ccnc(C(C)(C)C(F)(F)F)c1 [Alpelisib] (partner 2 µM)
How it was run: as §1

Cell Line	relative viability ([1]; first compound 0.001 µM)	relative viability ([1]; first compound 0.003162 µM)	relative viability ([1]; first compound 0.01 µM)	relative viability ([1]; first compound 0.03162 µM)	relative viability ([1]; first compound 0.1 µM)	relative viability ([2]; first compound 0.001 µM)	relative viability ([2]; first compound 0.003162 µM)	relative viability ([2]; first compound 0.01 µM)	relative viability ([2]; first compound 0.03162 µM)	relative viability ([2]; first compound 0.1 µM)	relative viability ([3]; first compound 0.001 µM)	relative viability ([3]; first compound 0.003162 µM)	relative viability ([3]; first compound 0.01 µM)	relative viability ([3]; first compound 0.03162 µM)	relative viability ([3]; first compound 0.1 µM)	relative viability ([4]; first compound 0.001 µM)	relative viability ([4]; first compound 0.003162 µM)	relative viability ([4]; first compound 0.01 µM)	relative viability ([4]; first compound 0.03162 µM)	relative viability ([4]; first compound 0.1 µM)
NCI-H23	0.544	0.272	0.127	0.151	0.108	0.794	0.601	0.14	0.159	0.109	0.447	0.226	0.123	0.11	0.118	0.57	0.242	0.108	0.129	0.115
NCI-H322M	0.348	0.376	0.258	0.256	0.278	0.61	0.362	0.239	0.227	0.217	0.777	0.474	0.3	0.274	0.267	0.562	0.292	0.245	0.294	0.271
NCI-H358	0.523	0.114	0.0702	0.0815	0.0642	0.436	0.398	0.203	0.212	0.156	0.653	0.327	0.186	0.23	0.157	0.64	0.236	0.154	0.175	0.151
NCI-H460	0.838	0.76	0.26	0.0217	0.0185	1.05	1.11	0.278	0.0125	0.009	0.714	0.878	0.0967	0.0138	0.0057	0.684	0.484	0.0473	0.0144	0.0066
NCI-H520	0.306	0.296	0.254	0.189	0.156	0.901	1.11	0.474	0.186	0.121	1.13	0.917	0.482	0.186	0.131	0.933	0.897	0.461	0.195	0.142
NCI-H596	0.659	0.604	0.392	0.232	0.193	1.01	1.07	0.739	0.424	0.373	1.11	1.06	0.727	0.384	0.357	0.489	0.454	0.345	0.329	0.194
NCI-H647	0.408	0.128	0.0727	0.0897	0.0704	0.742	0.28	0.0986	0.0734	0.0451	1.27	0.382	0.0832	0.0779	0.0445	1.08	0.174	0.0715	0.0975	0.0551
NCI-H650	0.46	0.24	0.194	0.153	0.169	0.606	0.269	0.299	0.149	0.161	0.634	0.282	0.21	0.153	0.147	0.816	0.486	0.179	0.177	0.159
NCI-H661	0.767	0.597	0.374	0.204	0.208	0.618	0.47	0.287	0.216	0.171	0.534	0.406	0.245	0.198	0.15	0.594	0.503	0.185	0.177	0.172
NCI-H727	0.586	0.409	0.353	0.327	0.297	0.843	0.561	0.262	0.239	0.281	0.325	0.277	0.236	0.219	0.213	0.412	0.311	0.199	0.221	0.212
NCI-H838	0.367	0.441	0.3	0.245	0.124	1.02	1.22	0.923	0.282	0.103	1.05	1.12	0.933	0.328	0.14	1.05	1.17	1.14	0.557	0.169
NCI-H1355	0.362	0.28	0.159	0.178	0.173	0.884	0.825	0.304	0.153	0.153	0.816	0.606	0.221	0.123	0.129	0.756	0.569	0.135	0.156	0.116
NCI-H1395	0.705	0.493	0.391	0.313	0.303	1.02	0.725	0.448	0.32	0.33	1.02	0.814	0.565	0.407	0.334	1.19	0.815	0.459	0.369	0.406
NCI-H1437	0.822	0.734	0.452	0.297	0.181	0.828	0.737	0.402	0.157	0.0977	1.05	0.875	0.406	0.213	0.105	1.15	0.873	0.373	0.185	0.0956
NCI-H1563	0.761	0.726	0.631	0.5	0.545	1.01	1.19	0.901	0.704	0.612	1.5	1.12	1.08	0.734	0.531	0.99	0.94	0.635	0.651	0.428
NCI-H1651	0.607	0.75	0.557	0.248	0.117	0.863	1	0.678	0.165	0.0838	0.884	1.04	0.69	0.211	0.0842	0.923	0.967	0.889	0.159	0.0819
